Several values for one entry are separate records, joined by “and”; a condition that tells them apart may be missing. Identical values can stand only once. Like-named read-outs stand apart in the source and are kept apart here.
How the values were obtained:
[1] = system: Human iSNs (TRPA1, TRPM8, TRPV1); experiment: Calcium imaging of human iSNs exposed to TRP channel ligands; type: cell-based
[2] = system: BN1 and BN2 iSNs (TrpA1, TrpM8, TrpV1); experiment: Calcium imaging of mouse iSNs exposed to Trp channel ligands (Map2::GCAMP5.G); type: cell-based
MEFs = experiment: Reprogramming of MEFs in presence of EdU or mitotic inhibitor AraC; type: cell-based, mouse
Method: Immunohistochemistry, and RT-PCR: For immunofluorescence staining, cells were fixed 4% paraformaldehyde for 10 minutes at room temperature. Cells were then washed three times with PBS and subsequently permeabilized with 0.1% Triton X-100 (Sigma) in PBS. After washing and permeabilization cells were blocked in 5% horse serum for thirty minutes at room temperature. Primary staining was performed overnight at 4° C. in block. Secondary antibodies were diluted in blocking solution and stained room temperature for one hour. EdU staining was performed using Click-it EdU kit (C10337;Invitrogen) following manufacturer's instructions. […]
We examined whether the observed reprogramming of fibroblasts to the somatic sensory lineage requires cell division or specialized embryonic precursors. […] Second, to further block proliferation we applied the mitotic inhibitor arabinofuranosyl cytidine (AraC) to cultures continuously from three days post induction and quantified the number of Map2-positive cells on day 14.

[3] = human BN1 iSNs, KCl responders, 10 μM capsaicin, 100 μM menthol, 100 μM mustard oil
[4] = human BN2 iSNs, KCl responders, 10 μM capsaicin, 100 μM menthol, 100 μM mustard oil
[5] = mouse BN1 iSNs, KCl responders, 10 μM capsaicin, 100 μM menthol, 100 μM mustard oil
[6] = mouse BN2 iSNs, KCl responders, 10 μM capsaicin, 100 μM menthol, 100 μM mustard oil

Compound | iSNs exhibiting calcium transients in response to ligand [1] | iSNs exhibiting calcium transients in response to ligand [2] | iSNs exhibiting calcium transients in response to ligand [1, 3] | iSNs exhibiting calcium transients in response to ligand [1, 4] | iSNs exhibiting calcium transients in response to ligand [2, 5] | iSNs exhibiting calcium transients in response to ligand [2, 6] | inhibition of proliferative cells (MEFs; 4 μM) | effect of mitotic inhibition on number of neurons (Map2-positive cells) produced during reprogramming (MEFs; applied continuously from three days post induction, counted day 14, BN1 or BN2)
C=CCN=C=S [mustard oil, allyl isothiocyanate] | 12.8%±4.5 and 8.8%±3.7 | 12.9%±3.8 and 12.5%±3.4 | – | – | – | – | – | –
COc1cc(CNC(=O)CCCC/C=C/C(C)C)ccc1O [capsaicin] | – | – | 4.4%±1.7 | 5.9%±3.3 | 19.7%±3.0 | 21.2%±3.5 | – | –
Nc1ccn([C@@H]2O[C@H](CO)[C@@H](O)[C@@H]2O)c(=O)n1 [AraC, arabinofuranosyl cytidine] | – | – | – | – | – | – | > 90% | did not significantly alter the number of neurons
CC1CCC(C(C)C)C(O)C1 (stereo not drawn) [menthol] | – | – | 4.4%±1.4 | 6.0%±2.3 | 15.4%±2.6 | 17.4%±4.3 | – | –

From US10190094B2, “Methods and compositions related to induced sensory neurons” (priority 2013, dated 2019)
